# In patent US11214803B2, “Modulators of YAP1 expression” (Ionis Pharmaceuticals, Inc., priority 2019, dated 2022):
# Strand notation (5' to 3'): a small letter for the sugar, then the base; units joined by * are phosphorothioate-linked, units joined directly phosphodiester-linked; [ ] holds rarer units or linkages, { } end groups; capitals alone tell only the bases. k = constrained ethyl (cEt); [5mC] = 5-methylcytosine; d = 2'-deoxy (DNA)
# Test system: Yap1 mRNA
# Assay: Antisense inhibition of human Yap1 in A-431 cells by cEt gapmers, single dose (Example 2, RTS4814)
# Assay type: cell-based
# Conditions: A-431 cells, 5,000 cells per well, free uptake, 2,000 nM modified oligonucleotide, approx. 48 hours, RTS4814, normalized to RIBOGREEN; Table 4; asterisk (*) = targets amplicon region of primer probe set
# Method in brief: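 A-431 cells (5,000/well) took up 2,000 nM 3-10-3 cEt gapmer by free uptake for ~48 h. Yap1 mRNA was quantified by qRT-PCR with primer probe set RTS4814, normalized to RIBOGREEN total RNA, and reported as % of untreated control.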
row,Substance,YAP1 (% UTC)
1,716463 (kG*kA*k[5mC]*dT*dG*d[5mC]*d[5mC]*d[5mC]*d[5mC]*dA*dA*d[5mC]*d[5mC]*kA*kG*kA; antisense) [Compound 716463],64

# Same assay, conditions: Table 5; A-431 cells, 5,000 cells per well, free uptake, 2,000 nM modified oligonucleotide, approx. 48 hours; RTS4814; normalized to RIBOGREEN; Yap1 mRNA relative to untreated control cells
row,Substance,YAP1 (% UTC)
1,716413 (kT*k[5mC]*k[5mC]*dA*dA*dG*dG*dT*d[5mC]*d[5mC]*dA*d[5mC]*dA*kT*kT*kT; antisense) [Compound 716413],79
2,716440 (k[5mC]*kT*k[5mC]*dT*dT*d[5mC]*dA*dA*dA*dT*d[5mC]*dA*dG*k[5mC]*kA*kT; antisense) [Compound 716440],45

# Same assay, conditions: Table 6; A-431 cells, 5,000 cells per well, free uptake, 2,000 nM modified oligonucleotide, approx. 48 hours; RTS4814; normalized to RIBOGREEN; Yap1 mRNA relative to untreated control cells
row,Substance,YAP1 (% UTC)
1,716453 (kG*kG*kT*dA*dA*dA*dA*dA*dA*dA*dA*d[5mC]*d[5mC]*kA*kG*kG; antisense) [Compound 716453],87
2,716501 (kG*k[5mC]*kA*d[5mC]*dT*dG*dA*dA*dA*dG*dT*dA*d[5mC]*kT*kT*kA; antisense) [Compound 716501],32
3,716567 (kG*kA*k[5mC]*dT*dA*dT*dA*d[5mC]*dA*dA*d[5mC]*dA*dG*kG*k[5mC]*k[5mC]; antisense) [Compound 716567],134

# Same assay, conditions: Table 18; A-431 cells, 5,000 cells per well, free uptake, 2,000 nM modified oligonucleotide, approx. 48 hours; RTS4814; normalized to RIBOGREEN; Yap1 mRNA as percent of untreated control
row,Substance,YAP1 (% UTC)
1,1074116 (antisense kG*kA*kG*dA*dA*d[5mC]*dT*dT*dT*dT*dT*d[5mC]*d[5mC]*k[5mC]*kT*k[5mC]) [Compound 1074116],112
2,1074212 (antisense kG*k[5mC]*kT*dT*d[5mC]*d[5mC]*dG*dG*dA*dG*d[5mC]*d[5mC]*dT*k[5mC]*kA*kT) [Compound 1074212],53

# Same assay, conditions: Table 19; A-431 cells, 5,000 cells per well, free uptake, 2,000 nM modified oligonucleotide, approx. 48 hours; RTS4814; normalized to RIBOGREEN; Yap1 mRNA as percent of untreated control
row,Substance,YAP1 (% UTC)
1,1075045 (antisense kA*kA*kA*dT*dT*dA*dG*dA*d[5mC]*dT*d[5mC]*d[5mC]*d[5mC]*k[5mC]*k[5mC]*kA) [Compound 1075045],18
2,1076325 (k[5mC]*kT*kA*dA*dT*dA*dA*dT*dG*dG*dA*dA*dG*kA*kG*kT; antisense) [Compound 1076325],16

# Same assay, conditions: Table 20; Yap1 mRNA, percent of untreated control; 3-10-3 cEt gapmers targeting SEQ ID NO.: 1 and 2
row,Substance,YAP1 (% UTC)
1,1075878 (kG*kA*kT*dT*dA*dT*d[5mC]*dA*dA*dG*dT*dA*dG*kT*kT*kT; antisense) [Compound 1075878],35
2,1076518 (antisense kG*kA*kT*dA*dA*dG*d[5mC]*dA*d[5mC]*d[5mC]*dA*d[5mC]*d[5mC]*kA*kT*kA) [Compound 1076518],25
3,1075046 (antisense kA*kA*kA*dA*dT*dT*dA*dG*dA*d[5mC]*dT*d[5mC]*d[5mC]*k[5mC]*k[5mC]*k[5mC]) [Compound 1075046],12

# Same assay, conditions: Table 21; Yap1 mRNA, percent of untreated control; 3-10-3 cEt gapmers targeting SEQ ID NO.: 1 and 2
row,Substance,YAP1 (% UTC)
1,1076135 (k[5mC]*kA*kT*dA*dA*dT*dT*dG*dA*d[5mC]*dA*dG*dG*kT*kA*kT; antisense) [Compound 1076135],14
2,1075367 (k[5mC]*kA*kT*dT*dA*d[5mC]*dT*dT*dA*dG*dG*dG*d[5mC]*kT*kT*kA; antisense) [Compound 1075367],12
3,1076423 (k[5mC]*k[5mC]*kT*dG*dA*dA*d[5mC]*d[5mC]*dT*dT*d[5mC]*dT*dG*kG*kA*kT; antisense) [Compound 1076423],93
4,1076199 (kT*kA*kT*d[5mC]*dA*dA*dA*dA*dG*dT*d[5mC]*d[5mC]*dA*kT*k[5mC]*k[5mC]; antisense) [Compound 1076199],37
5,1076167 (kA*kA*kA*dT*dT*dT*dA*d[5mC]*dA*d[5mC]*d[5mC]*dA*d[5mC]*k[5mC]*kG*k[5mC]; antisense) [Compound 1076167],33

# Same assay, conditions: Table 22; Yap1 mRNA as percent of untreated control; 3-10-3 cEt gapmers; single dose
row,Substance,YAP1 (% UTC)
1,1076392 (kT*kA*kT*dT*dA*dA*dT*d[5mC]*dA*dA*dA*dT*dA*kG*kG*kG; antisense) [Compound 1076392],64
2,1074984 (antisense kA*kT*k[5mC]*dA*d[5mC]*d[5mC]*dT*dT*dT*dT*dA*dT*dT*kG*k[5mC]*k[5mC]) [Compound 1074984],31
3,1075016 (antisense kT*k[5mC]*kA*dG*dA*dA*dT*dA*dA*dG*dT*dA*dT*kG*kA*kT) [Compound 1075016],100
4,1074152 (antisense k[5mC]*kG*kG*dG*d[5mC]*d[5mC]*dG*dA*dG*dG*dT*dG*dG*kA*kG*kA) [Compound 1074152],77
5,1074408 (antisense kG*kA*kT*dT*dA*dA*dA*dG*dT*dA*dT*d[5mC]*dT*kT*kG*k[5mC]) [Compound 1074408],23
6,1076008 (kA*kG*k[5mC]*dG*dA*dA*dA*dA*dT*dA*dA*d[5mC]*dA*kT*kT*kA; antisense) [Compound 1076008],33
7,1075912 (kA*kG*kT*dT*dA*dT*dA*d[5mC]*dA*d[5mC]*dA*dA*d[5mC]*k[5mC]*kA*k[5mC]; antisense) [Compound 1075912],13
8,1075176 (antisense kA*kA*kT*dT*dA*d[5mC]*d[5mC]*d[5mC]*dG*dG*dG*dA*dA*k[5mC]*kT*kA) [Compound 1075176],70

# Same assay, conditions: Table 23; Yap1 mRNA as percent of untreated control; 3-10-3 cEt gapmers; single dose
row,Substance,YAP1 (% UTC)
1,1075049 (antisense kG*kA*kA*dA*dT*dA*dT*dT*dG*dG*dT*dA*dA*kG*kT*k[5mC]) [Compound 1075049],10
2,1076393 (k[5mC]*kT*kT*dT*dA*d[5mC]*dT*dT*dA*d[5mC]*dT*dG*dG*kT*kG*kG; antisense) [Compound 1076393],4
3,1074377 (antisense kA*kA*kA*d[5mC]*dG*dG*dT*dT*d[5mC]*dT*dG*d[5mC]*dT*kG*kT*kG) [Compound 1074377],52
4,1074281 (antisense kG*kA*kG*dG*dG*dT*d[5mC]*dA*dA*dG*d[5mC]*d[5mC]*dT*kT*kG*kG) [Compound 1074281],91

# Same assay, conditions: Table 24; Yap1 mRNA as percent of untreated control; 3-10-3 cEt gapmers targeting SEQ ID NO.: 1, and 2
row,Substance,YAP1 (% UTC)
1,1074794 (k[5mC]*kA*kA*dA*dT*d[5mC]*dA*dA*dT*dG*dT*dG*d[5mC]*kT*k[5mC]*k[5mC]; antisense) [Compound 1074794],5

# Same assay, conditions: Table 25; Yap1 mRNA as percent of untreated control; 3-10-3 cEt gapmers targeting SEQ ID NO.: 1, and 2
row,Substance,YAP1 (% UTC)
1,1075531 (k[5mC]*kT*kT*dA*dA*dT*dA*dG*dT*dT*dT*dA*dA*k[5mC]*k[5mC]*kT; antisense) [Compound 1075531],66
2,1075595 (kT*kA*kT*dA*dA*dT*dA*d[5mC]*dA*dT*d[5mC]*dT*d[5mC]*k[5mC]*k[5mC]*k[5mC]; antisense) [Compound 1075595],50
3,1076203 (kG*kT*kT*dA*dA*dT*dA*d[5mC]*dA*dT*dG*dG*d[5mC]*k[5mC]*kA*kA; antisense) [Compound 1076203],29

# Same assay, conditions: Table 32; Yap1 mRNA, percent of untreated control; 3-10-3 cEt gapmers targeting SEQ ID NO.: 1, and 2
row,Substance,YAP1 (% UTC)
1,1075474 (kT*kT*kT*dA*dA*dT*dA*dG*dG*d[5mC]*dT*d[5mC]*dT*kA*kT*k[5mC]; antisense) [compound 1075474],68

# Same assay, conditions: Table 33; Yap1 mRNA, percent of untreated control; 3-10-3 cEt gapmers targeting SEQ ID NO.: 1, and 2
row,Substance,YAP1 (% UTC)
1,1074291 (antisense k[5mC]*kA*k[5mC]*dT*d[5mC]*dT*dG*dA*d[5mC]*dT*dG*dA*dT*kT*k[5mC]*kT) [compound 1074291],11
2,1074771 (kA*kA*kT*d[5mC]*dT*dT*dA*dT*d[5mC]*d[5mC]*d[5mC]*dA*dA*kT*kG*k[5mC]; antisense) [compound 1074771],18
3,1075251 (kT*kA*kA*dT*dT*dA*d[5mC]*dG*dA*dT*dT*dA*dG*kA*kT*k[5mC]; antisense) [compound 1075251],79

# Same assay, conditions: Yap1 mRNA as percent of untreated control; A-431 cells; 3-10-3 cEt gapmers targeting SEQ ID NO.: 1, and 2; Table 30
row,Substance,YAP1 (% UTC)
1,1074352 (antisense k[5mC]*kA*kT*dG*d[5mC]*dT*dT*dA*dG*dT*d[5mC]*d[5mC]*dA*k[5mC]*kT*kG) [compound 1074352],69
2,1076560 (kT*k[5mC]*k[5mC]*dA*dA*dA*dT*dA*dT*dG*dG*d[5mC]*dA*kT*kA*k[5mC]; antisense) [compound 1076560],10
3,1074864 (k[5mC]*kA*kT*dA*dT*dG*dA*dG*d[5mC]*dA*dT*dG*d[5mC]*kT*k[5mC]*kT; antisense) [compound 1074864],47
4,1074768 (k[5mC]*kT*kT*dA*dT*d[5mC]*d[5mC]*d[5mC]*dA*dA*dT*dG*d[5mC]*kT*kA*k[5mC]; antisense) [compound 1074768],11
5,1076272 (kT*kT*kA*dG*dA*dA*d[5mC]*dA*dA*d[5mC]*dT*dA*d[5mC]*kT*kA*k[5mC]; antisense) [compound 1076272],53

# Same assay, conditions: Yap1 mRNA as percent of untreated control; A-431 cells; 3-10-3 cEt gapmers targeting SEQ ID NO.: 1, and 2; Table 31
row,Substance,YAP1 (% UTC)
1,1075729 (kT*kA*kT*dT*dT*dA*dA*dA*dA*dA*dT*dA*dG*k[5mC]*kG*k[5mC]; antisense) [compound 1075729],88
2,1075569 (kG*kT*kA*dG*dA*dA*dA*dG*dG*d[5mC]*dA*dT*dT*kA*kG*kA; antisense) [compound 1075569],45
